According to US8173812B2, “Quinolines and their therapeutic use” (Pulmagen Therapeutics (Asthma) Limited, priority 2007, dated 2012):

Molecular target: T1, CRTH2 receptor (Homo sapiens, UniProt Q9Y5Y4)
T1 sequence (Q9Y5Y4 1-395): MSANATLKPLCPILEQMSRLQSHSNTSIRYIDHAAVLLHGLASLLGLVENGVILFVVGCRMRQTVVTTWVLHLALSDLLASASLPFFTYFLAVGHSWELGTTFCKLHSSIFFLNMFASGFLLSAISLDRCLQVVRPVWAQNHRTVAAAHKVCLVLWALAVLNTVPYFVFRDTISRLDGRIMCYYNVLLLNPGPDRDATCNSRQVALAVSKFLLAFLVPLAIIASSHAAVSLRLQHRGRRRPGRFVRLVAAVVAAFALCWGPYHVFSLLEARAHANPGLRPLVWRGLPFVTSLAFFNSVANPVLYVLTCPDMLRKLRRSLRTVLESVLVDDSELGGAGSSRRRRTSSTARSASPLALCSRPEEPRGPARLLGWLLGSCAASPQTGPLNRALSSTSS
Test: CRTH2 radioligand binding assay ([3H]-PGD2 displacement, SPA)
Conditions: HEK cell membranes expressing the CRTH2 receptor, 1 nM [3H]-PGD2
Method: Radioligand Binding Assay
The receptor binding assay is performed in a final volume of 200 μL binding buffer [10 mM BES (pH 7.4), 1 mM EDTA, 10 mM manganese chloride, 0.01% BSA] and 1 nM [^3H]-PGD2 (Amersham Biosciences UK Ltd). Ligands are added in assay buffer containing a constant amount of DMSO (1% by volume). Total binding is determined using 1% by volume of DMSO in assay buffer and non-specific binding is determined using 10 μM of unlabeled PGD2 (Sigma). Human embryonic kidney (HEK) cell membranes (3.5 μg) expressing the CRTH2 receptor are incubated with 1.5 mg wheatgerm agglutinin SPA beads and 1 nM [^3H]-PGD2 (Amersham Biosciences UK Ltd) and the mixture incubated for 3 hours at room temperature. Bound [^3H]-PGD2 is detected using a Microbeta TRILUX liquid scintillation counter (Perkin Elmer). Compound IC50 value is determined using a 6-point dose response curve in duplicate with a semi-log compound dilution series. IC50 calculations are performed using Excel and XLfit (Microsoft), and this value is used to determine a Ki value for the test compound using the Cheng-Prusoff equation.

Row | IC50 [nM] | Structure (SMILES)
1 | 5.4 | CCc1nc2c(F)ccc(OCC(=O)O)c2c(OC(F)F)c1Cc1ccc(-n2cccn2)cc1 [Example 1, [4-difluoromethoxy-2-ethyl-8-fluoro-3-(4-pyrazol-1-ylbenzyl)quinolin-5-yloxy]acetic acid]
2 | 6.3 | CCc1nc2c(F)ccc(OCC(=O)O)c2c(OC(F)F)c1Cc1ccc(-c2ncco2)cc1 [Example 2, [4-difluoromethoxy-2-ethyl-8-fluoro-3-(4-oxazol-2-ylbenzyl)quinolin-5-yloxy]acetic acid]
